Structures are written as SMILES.

For this experiment, the target named is T1, OX40 (Homo sapiens, UniProt P43489).
T1 construct: host or cells: OX40 Jurkat cells (NF-kB luciferase reporter)
T1 sequence (P43489 29-277): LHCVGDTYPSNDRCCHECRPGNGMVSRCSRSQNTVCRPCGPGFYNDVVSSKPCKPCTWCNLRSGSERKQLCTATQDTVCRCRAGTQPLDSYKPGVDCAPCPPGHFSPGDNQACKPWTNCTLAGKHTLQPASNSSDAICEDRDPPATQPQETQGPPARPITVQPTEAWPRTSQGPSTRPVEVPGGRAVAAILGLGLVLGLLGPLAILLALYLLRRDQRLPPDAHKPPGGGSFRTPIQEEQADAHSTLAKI
The experiment is described as follows: Promega OX40 cell-activity assay (NF-κB luciferase read-out in OX40 Jurkat cells). Format: cell-based. Particulars: synthetic OX40 tetramer, FIG. 1.

Protocol: Promega have developed an OX40 cell-activity assay that uses NF-κB luciferase luminescence as a read-out of OX40 activation in Jurkat cells (Promega CS197704). On the day of the experiment, prepare medium by thawing FBS and adding 5% FBS to RPMI-1640. Thaw OX40 Jurkat cells in the water-bath and then add 500 μl cells to 11.5 ml pre-warmed 5 FBS RPMI-1640 medium. Add 60 μl cells/well to white cell culture plates. Proceed to dilute agonists at concentration giving the maximum fold induction and then titrate down the amount in a sterile 96 well-plate. […] Prepare enough reagent for duplicate samples and then perform ⅓ dilution series or 1/10 dilution series. Include positive control OX40L trimer (R&D systems #1054-OX-010) and negative control monomeric peptide. Add 20 μl of agonist as duplicate samples or 5% FBS RPMI-1640 alone as background control.
Co-incubate cells together with agonists for 5 hours at 37° C., 5% CO2. After 5 hours, thaw Bio-Glo™ and develop the assay at room-temperature. Add 80 μl Bio-Glo™ per well and incubate 5-10 min. Read luciferase signal on CLARIOStar plate-reader using the MARS program and normalize the fold induction relative to background (medium alone). Analyse data by transforming the data to x=log (X), then plot log (agonist) vs. response variable slope (4 parameters) to calculate EC50 values.

For `CC(C)C[C@@H]1NC(=O)[C@@H](NC(=O)[C@H](C)N)CSCCC(=O)N2CN3CN(C2)C(=O)CCSC[C@H](NC(=O)[C@@H]2CCCN2C(=O)[C@H](CO)NC(=O)[C@H](Cc2ccc(O)cc2)NC1=O)C(=O)N[C@@H](Cc1c[nH]c2ccccc12)C(=O)N[C@@H](Cc1c[nH]cn1)C(=O)N1CCC[C@H]1C(=O)N[C@@H](CC(C)C)C(=O)N[C@@H](CC(N)=O)C(=O)N[C@@H](CC(=O)O)C(=O)N[C@H](C(=O)N[C@@H](C)C(=O)N[C@@H](CCCCNC(=O)CCc1cn(CCOCCOCCOCCOCCOCCOCCOCCOCCOCCOCCOCCOCCOCCOCCOCCOCCOCCOCCOCCOCCOCCOCCOCCNC(=O)CCOCC(COCCC(=O)NCCOCCOCCOCCOCCOCCOCCOCCOCCOCCOCCOCCOCCOCCOCCOCCOCCOCCOCCOCCOCCOCCOCCOCCn2cc(CCC(=O)NCCCC[C@H](NC(=O)[C@H](C)NC(=O)[C@@H]4CSCCC(=O)N5CN6CN(C5)C(=O)CCSC[C@H](NC(=O)[C@@H]5CCCN5C(=O)[C@H](CO)NC(=O)[C@H](Cc5ccc(O)cc5)NC(=O)[C@H](CC(C)C)NC(=O)[C@@H](NC(=O)[C@H](C)N)CSCCC6=O)C(=O)N[C@@H](Cc5c[nH]c6ccccc56)C(=O)N[C@@H](Cc5c[nH]cn5)C(=O)N5CCC[C@H]5C(=O)N[C@@H](CC(C)C)C(=O)N[C@@H](CC(N)=O)C(=O)N[C@@H](CC(=O)O)C(=O)N4)C(N)=O)nn2)(COCCC(=O)NCCOCCOCCOCCOCCOCCOCCOCCOCCOCCOCCOCCOCCOCCOCCOCCOCCOCCOCCOCCOCCOCCOCCOCCn2cc(CCC(=O)NCCCC[C@H](NC(=O)[C@H](C)NC(=O)[C@@H]4CSCCC(=O)N5CN6CN(C5)C(=O)CCSC[C@H](NC(=O)[C@@H]5CCCN5C(=O)[C@H](CO)NC(=O)[C@H](Cc5ccc(O)cc5)NC(=O)[C@H](CC(C)C)NC(=O)[C@@H](NC(=O)[C@H](C)N)CSCCC6=O)C(=O)N[C@@H](Cc5c[nH]c6ccccc56)C(=O)N[C@@H](Cc5c[nH]cn5)C(=O)N5CCC[C@H]5C(=O)N[C@@H](CC(C)C)C(=O)N[C@@H](CC(N)=O)C(=O)N[C@@H](CC(=O)O)C(=O)N4)C(N)=O)nn2)COCCC(=O)NCCOCCOCCOCCOCCOCCOCCOCCOCCOCCOCCOCCOCCOCCOCCOCCOCCOCCOCCOCCOCCOCCOCCOCCn2cc(CCC(=O)NCCCC[C@H](NC(=O)[C@H](C)NC(=O)[C@@H]4CSCCC(=O)N5CN6CN(C5)C(=O)CCSC[C@H](NC(=O)[C@@H]5CCCN5C(=O)[C@H](CO)NC(=O)[C@H](Cc5ccc(O)cc5)NC(=O)[C@H](CC(C)C)NC(=O)[C@@H](NC(=O)[C@H](C)N)CSCCC6=O)C(=O)N[C@@H](Cc5c[nH]c6ccccc56)C(=O)N[C@@H](Cc5c[nH]cn5)C(=O)N5CCC[C@H]5C(=O)N[C@@H](CC(C)C)C(=O)N[C@@H](CC(N)=O)C(=O)N[C@@H](CC(=O)O)C(=O)N4)C(N)=O)nn2)nn1)C(N)=O)CSCCC3=O` [BCY12019], the “EC50 (range in words)” value was “low nanomolar range”.
